# Laboratory results from the supplement of paper PMC10307832.
# Key:
# Test in all cases: relative viability (nuclei count vs DMSO), 5 days (fraction); higher = more cells survive
# Bemcentinib + Pemetrexed = compound: Nc1nc(Nc2ccc3c(c2)CC[C@@H](N2CCCC2)CC3)nn1-c1cc2c(nn1)-c1ccccc1CCC2 [Bemcentinib] + Nc1nc2[nH]cc(CCc3ccc(C(=O)N[C@@H](CCC(=O)O)C(=O)O)cc3)c2c(=O)[nH]1 [Pemetrexed] (partner 0.2 µM)
# Procedure, shortened: (§1)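 A single step with final 0.05% Triton X-100, 1% formaldehyde and 1 ug/ml Hoechst fixed the cells and stained nuclei 5 days after treatment. Lung cancer cell lines in 1536-well plates had been treated by pin tool the day after seeding with one drug alone or a fixed anchor-drug dose plus five library-drug doses (not always all listed) in √10 steps, and nuclei were counted on 4× images. Relative viability is the ratio of nuclei in treated wells to nuclei in vehicle wells, taken as the median of duplicate plates.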
# Bemcentinib + OSI-027 = compound: Nc1nc(Nc2ccc3c(c2)CC[C@@H](N2CCCC2)CC3)nn1-c1cc2c(nn1)-c1ccccc1CCC2 [Bemcentinib] + COc1cccc2cc(-c3nc([C@H]4CC[C@H](C(=O)O)CC4)n4ncnc(N)c34)[nH]c12 [OSI-027] (partner 0.5 µM)
# Procedure, shortened: as §1
# Axitinib + Linsitinib = compound: CNC(=O)c1ccccc1Sc1ccc2c(/C=C/c3ccccn3)n[nH]c2c1 [Axitinib] + C[C@]1(O)C[C@@H](c2nc(-c3ccc4ccc(-c5ccccc5)nc4c3)c3c(N)nccn32)C1 [Linsitinib] (partner 1 µM)
# Procedure, shortened: as §1
# Bemcentinib + Luminespib = compound: Nc1nc(Nc2ccc3c(c2)CC[C@@H](N2CCCC2)CC3)nn1-c1cc2c(nn1)-c1ccccc1CCC2 [Bemcentinib] + CCNC(=O)c1noc(-c2cc(C(C)C)c(O)cc2O)c1-c1ccc(CN2CCOCC2)cc1 [Luminespib] (partner 0.01 µM)
# Procedure, shortened: as §1
Cell Line,relative viability (Bemcentinib + Pemetrexed; first compound 0.04 µM),relative viability (Bemcentinib + Pemetrexed; first compound 0.1265 µM),relative viability (Bemcentinib + Pemetrexed; first compound 0.4 µM),relative viability (Bemcentinib + Pemetrexed; first compound 1.265 µM),relative viability (Bemcentinib + Pemetrexed; first compound 4 µM),relative viability (Bemcentinib + OSI-027; first compound 0.04 µM),relative viability (Bemcentinib + OSI-027; first compound 0.1265 µM),relative viability (Bemcentinib + OSI-027; first compound 0.4 µM),relative viability (Bemcentinib + OSI-027; first compound 1.265 µM),relative viability (Bemcentinib + OSI-027; first compound 4 µM),relative viability (Axitinib + Linsitinib; first compound 0.005 µM),relative viability (Axitinib + Linsitinib; first compound 0.01581 µM),relative viability (Axitinib + Linsitinib; first compound 0.05 µM),relative viability (Axitinib + Linsitinib; first compound 0.1581 µM),relative viability (Axitinib + Linsitinib; first compound 0.5 µM),relative viability (Bemcentinib + Luminespib; first compound 0.04 µM),relative viability (Bemcentinib + Luminespib; first compound 0.1265 µM),relative viability (Bemcentinib + Luminespib; first compound 0.4 µM),relative viability (Bemcentinib + Luminespib; first compound 1.265 µM),relative viability (Bemcentinib + Luminespib; first compound 4 µM)
COR-L23,0.195,0.204,0.204,0.19,0.202,0.665,0.969,0.905,0.788,0.888,0.899,0.944,1.01,0.968,1.11,0.628,0.903,0.807,0.827,0.913
COR-L 105,0.989,1.12,1.18,0.93,1.03,0.521,0.642,0.571,0.713,0.726,1.04,0.792,0.97,1.21,1.13,0.741,0.839,0.893,0.704,0.783
EKVX,0.355,0.42,0.422,0.401,0.333,0.57,0.669,0.753,0.793,0.824,1.04,0.849,0.946,0.997,1.08,0.825,0.878,0.923,0.838,0.863
EMC-BAC-2,0.442,0.475,0.48,0.416,0.419,0.372,0.369,0.427,0.37,0.388,0.874,0.781,0.813,0.782,0.837,1.24,1.29,1.16,1.19,1.2
EPLC-272H,0.313,0.337,0.371,0.319,0.291,0.342,0.266,0.318,0.244,0.361,1.33,1.1,1.32,1.12,1.07,0.25,0.658,0.279,0.353,0.318
H3255,0.533,0.616,0.585,0.624,0.517,0.597,0.66,0.558,0.66,0.666,1.08,0.797,0.83,0.917,1.03,0.745,1.07,0.793,0.777,0.747
HARA,0.236,0.243,0.241,0.245,0.196,0.479,0.758,0.589,0.453,0.469,1.06,0.972,1.09,0.914,1.05,0.603,0.983,0.719,1.03,0.597
HCC-15,0.231,0.219,0.226,0.218,0.221,0.716,0.794,0.74,0.726,0.815,0.959,0.879,0.88,0.838,0.895,0.326,0.485,0.293,0.253,0.235
HCC-44,0.676,0.665,0.684,0.723,0.679,0.452,0.661,0.446,0.483,0.511,0.756,0.699,0.746,0.692,0.733,1.05,1.4,1.02,1.06,1.05
HCC-827,0.267,0.267,0.266,0.262,0.286,0.816,0.927,0.862,0.84,0.848,0.927,0.907,0.963,0.977,0.999,0.689,0.6,0.624,0.742,0.589
HOP-62,0.348,0.357,0.385,0.37,0.359,0.958,0.904,0.845,0.853,0.9,0.961,0.977,0.777,0.894,1.06,0.863,0.875,0.844,1.02,1
LC-2-ad,0.252,0.28,0.258,0.262,0.273,0.892,0.906,0.761,0.964,0.927,0.843,0.844,0.887,0.833,1.01,0.997,1.11,1.03,0.935,0.905
LCLC-97TM1,0.16,0.177,0.182,0.177,0.177,0.649,0.527,0.538,0.542,0.598,0.187,0.226,0.199,0.179,0.186,0.684,0.793,0.726,0.866,0.986
LCLC-103H,0.422,0.478,0.428,0.455,0.434,0.479,0.5,0.452,0.422,0.448,1.27,1.08,1.05,1.05,1.03,1.06,1.15,0.94,1.11,0.899
LK-2,0.246,0.323,0.294,0.256,0.294,0.171,0.229,0.206,0.186,0.19,0.543,0.471,–,0.439,0.415,0.218,0.167,0.151,0.172,0.182
LOU-NH91,0.408,0.369,0.4,0.45,0.376,0.697,0.703,0.721,0.749,0.775,1.08,0.595,0.997,0.948,0.961,0.293,0.414,0.354,0.303,0.324
